Measurements as given in PubChem BioAssay AID179 (DTP/NCI, 2004).
Where “and” joins values, the source holds several entries; their conditions need not be identical. Equal values may be shown once. Calls of active or inactive are those of the source.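 The calls were made as follows: active = compounds giving half or more protection of infected cells from virus-caused growth loss, again on retest; inactive = the rest.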

Test system: CEM cells HIV-1 protection, formazan growth assay
Experiment: NCI AIDS Antiviral Assay
Details: for IC50: measured here: growth of uninfected CEM cells
Summary of the method: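 CEM (human) cells, HIV-1 infected vs uninfected, 5-point dosing, formazan growth read-out. Retest threshold 50% protection.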

Row | SMILES | EC50 | IC50 | outcome
1 | CSc1nnc(CCC(=O)Nc2c(C)cccc2C)o1 | > 309 µM | > 309 µM | 
2 | CC(=O)Oc1cc2c(c3ncccc13)OC(C)(C)C2 | > 200 µM | 11 µM | 
3 | CCC1CC(C)=CCN1S(=O)(=O)c1ccc(C)cc1 (stereo not drawn) | > 18.6 µM | > 18.6 µM | 
4 | O=C(N/N=C/c1cc(Cl)cc(Cl)c1[OH2+])c1ccncc1.O=S(=O)([O-])[O-].[Fe+2] |  |  | inactive
5 | COc1ccc(C2(c3ccc(OC)cc3)N=NC3(C)CC32)cc1 (stereo not drawn) | > 91.2 µM | 89.1 µM | 
6 | Clc1ccc(NCc2nnc(CCCCCCCCc3nnc(CNc4ccc(Cl)cc4)o3)o2)cc1 | > 200 µM | > 200 µM | 
7 | O=C(O)C1C2C=CC(C2)C1c1c2ccc(=O)c(O)c-2oc2c(O)c(O)ccc12 (stereo not drawn) | > 200 µM | 26.3 µM | 
8 | COc1ccc(C2c3cc4c(cc3OC(NNc3ccccc3)C2C)OCO4)cc1 (stereo not drawn) | > 200 µM | 11.7 µM | 
9 | COc1cccc(CCn2c(N)c(C(=O)O)c3ccc([N+](=O)[O-])cc3c2=O)c1 | > 200 µM | 24 µM | 
10 | CC(=O)OC1(C)C=Cc2ccccc2/C1=N/S(=O)(=O)c1ccccc1 (stereo not drawn) | > 200 µM | 31.6 µM | 
11 | Cc1cn(C2OC(CO[Si](C)(C)C(C)(C)C)C(N(C)O[Si](C)(C)C(C)(C)C)C2[Se]c2ccccc2)c(=O)[nH]c1=O (stereo not drawn) | > 200 µM | 8.32 µM | 
12 | c1ccc(C2N3CCCCC3[C@@H]3c4[nH]c5ccccc5c4CCN23)nc1 (stereo partly drawn) | > 105 µM | > 105 µM | 
13 | Cn1c(=O)c2[nH]c(=O)c(C(CO)C(=O)c3ccccc3)nc2n(C)c1=O (stereo not drawn) | > 200 µM | 9.55 µM | 
14 | COc1cc2cc[n+]3c4cc(OC)c(OC)cc4c(C)cc3c2cc1OC |  |  | inactive
15 | N#Cc1c(O)cc(=O)n2c1[nH]c1ccccc12 | > 200 µM | 174 µM | 
16 | CCOC(=O)C1=CC(C)(C(=O)OCC)Nc2c(nc(N)[nH]c2=O)N1 (stereo not drawn) | 138 µM | > 200 µM | 
17 | COC(=O)c1cc2cc(O)c(O)cc2cn1 | > 200 µM | > 8.32 µM and 12 µM | 
18 | O=C1NC(=O)/C(=C\c2cccc(Br)c2)N1 | > 200 µM | 105 µM | 

Row | SMILES | EC50 | IC50 | outcome
19 | CCCCON1C[C@@H](O)C(O)[C@@H](O)C1 (stereo partly drawn) | > 200 µM | > 200 µM | 
20 | COc1ccc2nc3cc(Cl)ccc3c(NCCCN(Cc3cc(OC)c(OC)c(OC)c3)Cc3cc(OC)c(OC)c(OC)c3)c2c1 |  |  | inactive
21 | OCc1ccc2ccc3ccc(CO)nc3c2n1 | > 389 µM | 263 µM | 
22 | O=C(c1ccccc1)c1c(O)c2ccccc2oc1=O |  |  | inactive
23 | CC(=O)Nc1cc2cc(NS(=O)(=O)c3ccc(Cl)c(Cl)c3)ccc2oc1=O | > 47.9 µM | > 47.9 µM | 
24 | N#C/C=C\c1ccc(Cl)cc1 | > 43.7 µM | > 43.7 µM | 
25 | COc1ccc(C2CC(=O)CC(c3ccc(OC)cc3)C23C(=O)NC(=S)NC3=O)cc1 (stereo not drawn) | > 100 µM | > 100 µM | 
26 | COc1ccc(/C=C/c2cc(OC)c(OC)c(OC)c2)cc1O[Si](C)(C)C(C)(C)C | > 8.71 µM | 0.479 µM | 
27 | CCn1c2ccccc2c2c3ncc4cccn4c3ccc21 | > 200 µM | 135 µM | 
28 | CC(C)N(O)C(=N)c1ccccc1 |  |  | inactive
29 | COc1ccc2[nH]c3c(c2c1)CCc1ccccc1-3 |  |  | inactive
30 | Cc1cn(C(C)OCCN(O)C(N)=O)c(=O)[nH]c1=O (stereo not drawn) |  |  | inactive
31 | Nc1nc2c3c(ncn3CC(O)CO2)n1 (stereo not drawn) | > 9.55 µM | > 9.55 µM | 
32 | CCOC(=O)C(=CN1CC(=O)NC1=S)C(=O)OCC | > 200 µM | > 200 µM | 
33 | COC(C(=O)C(O)C(C)O)C1Cc2cc3cc(OC4CC(OC5CC(O)C(O)C(C)O5)C(O)C(C)O4)c(C)c(O)c3c(O)c2C(=O)C1OC1CC(OC2CC(O)C(OC3CC(C)(O)C(O)C(C)O3)C(C)O2)C(O)C(C)O1 (stereo not drawn) |  |  | inactive
34 | Cc1ccc(-c2nc3ccccc3c(=O)n2NC2OC(CO)C(O)C(O)C2O)cc1 (stereo not drawn) |  |  | inactive
35 | CN/C=C(/c1ccc(OC)cc1)C(O)c1ccc(OC)c(OC)c1 (stereo not drawn) | > 759 µM | 282 µM | 
36 | CC1=CC(=O)N2CCN=C2S1 | > 200 µM | > 200 µM | 
